From patent publication US8513238B2 (Hoffmann-La Roche Inc., priority 2010, dated 2013)
Counter-ions that a name gives are not always drawn.

Target: T1, human V1a receptor (Homo sapiens, UniProt P37288)
T1 construct: expressed in transfected cells; host or cells: HEK293 cells, transiently transfected; membranes prepared
Test: human V1a receptor binding (3H-Vasopressin SPA, HEK293 membranes)
Conditions: membranes of HEK293 cells transiently transfected with human V1a receptor, Ki by Cheng-Prussoff; for Ki: read-out: pKi (hV1a) (converted)
Description: The human V1a receptor was cloned by RT-PCR from total human liver RNA. The coding sequence was subcloned in an expression vector after sequencing to confirm the identity of the amplified sequence. […] Cell membranes were prepared from HEK293 cells transiently transfected with the expression vector and grown in 20 liter fermenters with the following protocol.
50 g of cells are resuspended in 30 ml freshly prepared ice cold Lysis buffer (50 mM HEPES, 1 mM EDTA, 10 mM magnesium dichloride adjusted to pH=7.4+complete cocktail of protease inhibitor (Roche Diagnostics)). Homogenized with Polytron for 1 min and sonicated on ice for 2×2 minutes at 80% intensity (Vibracell sonicator). The preparation is centrifuged 20 min at 500 g at 4° C., the pellet is discarded and the supernatant centrifuged 1 hour at 43,000 g at 4° C. (19,000 rpm). The pellet is resuspended in 12.5 ml Lysis buffer+12.5 ml sucrose 20% and homogenized using a Polytron for 1-2 min. The protein concentration is determined by the Bradford method and aliquots are stored at −80° C. until use. For binding studies 60 mg Yttrium silicate SPA beads (Amersham®) are mixed with an aliquot of membrane in binding buffer (50 mM Tris, 120 mM sodium chloride, 5 mM potassium chloride, 2 mM calcium dichloride, 10 mM magnesium dichloride) for 15 minutes with mixing. 50 μl of bead/membrane mixture is then added to each well of a 96 well plate, followed by 50 μl of 4 nM 3H-Vasopressin (American Radiolabeled Chemicals). For total binding measurement 100 μl of binding buffer are added to the respective wells, for non-specific binding 100 μl of 8.4 mM cold vasopressin and for compound testing 100 μl of a serial dilution of each compound in 2% dimethyl sulfoxide. The plate is incubated 1 h at room temperature, centrifuged 1 min at 1000 g and counted on a Packard Top-Count. Non-specific binding counts are subtracted from each well and data is normalized to the maximum specific binding set at 100%. To calculate an IC50 the curve is fitted using a non-linear regression model (XLfit) and the Ki is calculated using the Cheng-Prussoff equation.

T1 sequence (P37288 whole entry): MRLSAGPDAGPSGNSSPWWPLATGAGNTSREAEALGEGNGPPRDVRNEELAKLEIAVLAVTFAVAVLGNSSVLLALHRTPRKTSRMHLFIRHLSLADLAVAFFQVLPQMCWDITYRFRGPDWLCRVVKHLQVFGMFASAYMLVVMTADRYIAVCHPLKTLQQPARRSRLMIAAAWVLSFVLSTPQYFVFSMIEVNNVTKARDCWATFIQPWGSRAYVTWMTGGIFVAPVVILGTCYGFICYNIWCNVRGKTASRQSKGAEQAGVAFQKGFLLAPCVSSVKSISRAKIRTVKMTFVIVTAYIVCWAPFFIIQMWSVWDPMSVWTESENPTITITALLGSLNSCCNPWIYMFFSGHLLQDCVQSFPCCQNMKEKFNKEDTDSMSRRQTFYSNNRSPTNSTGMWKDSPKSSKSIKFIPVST

Structure (SMILES): Cc1nc([C@H]2CC[C@H](c3nnc4n3-c3ccc(Cl)cc3CN(C)C4)CC2)ns1 (stereo in doubt) [Example 97, trans-8-Chloro-5-methyl-1-[4-(5-methyl-[1,2,4]thiadiazol-3-yl)-cyclohexyl]-5,6-dihydro-4H-2,3,5,10b-tetraaza-benzo[e]azulene]
- Ki: 2.88 nM

Structure (SMILES): CC(C)(C)OC(=O)N1Cc2cc(Cl)ccc2-n2c(nnc2[C@H]2CC[C@H](c3ncco3)CC2)C1 [Example 1, trans-8-Chloro-1-(4-oxazol-2-yl-cyclohexyl)-4H,6H-2,3,5,10b-tetraaza-benzo[e]azulene-5-carboxylic acid tert-butyl ester]
- Ki: 1 nM

Structure (SMILES): Clc1ccc2c(c1)CNCc1nnc([C@H]3CC[C@H](c4ncco4)CC3)n1-2 [Example 2, trans-8-Chloro-1-(4-oxazol-2-yl-cyclohexyl)-5,6-dihydro-4H-2,3,5,10b-tetraaza-benzo[e]azulene]
- Ki: 53.7 nM

Structure (SMILES): CN1Cc2cc(Cl)ccc2-n2c(nnc2[C@H]2CC[C@H](c3ncco3)CC2)C1 [Example 3, trans-8-Chloro-5-methyl-1-(4-oxazol-2-yl-cyclohexyl)-5,6-dihydro-4H-2,3,5,10b-tetraaza-benzo[e]azulene]
- Ki: 10.5 nM

Structure (SMILES): Cc1coc([C@H]2CC[C@H](c3nnc4n3-c3ccc(Cl)cc3CN(C(=O)OC(C)(C)C)C4)CC2)n1 [Example 4, trans-8-Chloro-1-[4-(4-methyl-oxazol-2-yl)-cyclohexyl]-4H,6H-2,3,5,10b-tetraaza-benzo[e]azulene-5-carboxylic acid tert-butyl ester]
- Ki: 0.398 nM

Structure (SMILES): Cc1coc([C@H]2CC[C@H](c3nnc4n3-c3ccc(Cl)cc3CNC4)CC2)n1 [Example 5, trans-8-Chloro-1-[4-(4-methyl-oxazol-2-yl)-cyclohexyl]-5,6-dihydro-4H-2,3,5,10b-tetraaza-benzo[e]azulene]
- Ki: 32.4 nM

Structure (SMILES): Cc1coc([C@H]2CC[C@H](c3nnc4n3-c3ccc(Cl)cc3CN(C)C4)CC2)n1 [Example 6, trans-8-Chloro-5-methyl-1-[4-(4-methyl-oxazol-2-yl)-cyclohexyl]-5,6-dihydro-4H-2,3,5,10b-tetraaza-benzo[e]azulene]
- Ki: 3.31 nM

Structure (SMILES): Cc1cnc([C@H]2CC[C@H](c3nnc4n3-c3ccc(Cl)cc3CN(C(=O)OC(C)(C)C)C4)CC2)o1 [Example 7, trans-8-Chloro-1-[4-(5-methyl-oxazol-2-yl)-cyclohexyl]-4H,6H-2,3,5,10b-tetraaza-benzo[e]azulene-5-carboxylic acid tert-butyl ester]
- Ki: 0.603 nM

Structure (SMILES): Cc1cnc([C@H]2CC[C@H](c3nnc4n3-c3ccc(Cl)cc3CNC4)CC2)o1 [Example 8, trans-8-Chloro-1-[4-(5-methyl-oxazol-2-yl)-cyclohexyl]-5,6-dihydro-4H-2,3,5,10b-tetraaza-benzo[e]azulene]
- Ki: 18.6 nM

Structure (SMILES): Cc1cnc([C@H]2CC[C@H](c3nnc4n3-c3ccc(Cl)cc3CN(C)C4)CC2)o1 [Example 9, trans-8-Chloro-5-methyl-1-[4-(5-methyl-oxazol-2-yl)-cyclohexyl]-5,6-dihydro-4H-2,3,5,10b-tetraaza-benzo[e]azulene]
- Ki: 2.19 nM

Structure (SMILES): Cc1nc([C@H]2CC[C@H](c3nnc4n3-c3ccc(Cl)cc3CN(C(=O)OC(C)(C)C)C4)CC2)oc1C [Example 10, trans-8-Chloro-1-[4-(4,5-dimethyl-oxazol-2-yl)-cyclohexyl]-4H,6H-2,3,5,10b-tetraaza-benzo[e]azulene-5-carboxylic acid tert-butyl ester]
- Ki: 0.525 nM

Structure (SMILES): Cc1nc([C@H]2CC[C@H](c3nnc4n3-c3ccc(Cl)cc3CNC4)CC2)oc1C [Example 11, trans-8-Chloro-1-[4-(4,5-dimethyl-oxazol-2-yl)-cyclohexyl]-5,6-dihydro-4H-2,3,5,10b-tetraaza-benzo[e]azulene]
- Ki: 5.5 nM

Structure (SMILES): Cc1nc([C@H]2CC[C@H](c3nnc4n3-c3ccc(Cl)cc3CN(C)C4)CC2)oc1C [Example 12, trans-8-Chloro-5-methyl-1-[4-(4,5-dimethyl-oxazol-2-yl)-cyclohexyl]-5,6-dihydro-4H-2,3,5,10b-tetraaza-benzo[e]azulene]
- Ki: 0.851 nM

Structure (SMILES): CC(C)(C)OC(=O)N1Cc2cc(Cl)ccc2-n2c(nnc2[C@H]2CC[C@H](c3nccs3)CC2)C1 [Example 13, trans-8-Chloro-1-(4-thiazol-2-yl-cyclohexyl)-4H,6H-2,3,5,10b-tetraaza-benzo[e]azulene-5-carboxylic acid tert-butyl ester]
- Ki: 1 nM

Structure (SMILES): Clc1ccc2c(c1)CNCc1nnc([C@H]3CC[C@H](c4nccs4)CC3)n1-2 [Example 14, trans-8-Chloro-1-(4-thiazol-2-yl-cyclohexyl)-5,6-dihydro-4H-2,3,5,10b-tetraaza-benzo[e]azulene]
- Ki: 28.2 nM

Structure (SMILES): CN1Cc2cc(Cl)ccc2-n2c(nnc2[C@H]2CC[C@H](c3nccs3)CC2)C1 [Example 15, trans-8-Chloro-5-methyl-1-(4-thiazol-2-yl-cyclohexyl)-5,6-dihydro-4H-2,3,5,10b-tetraaza-benzo[e]azulene]
- Ki: 3.31 nM

Structure (SMILES): Cc1csc([C@H]2CC[C@H](c3nnc4n3-c3ccc(Cl)cc3CN(C(=O)OC(C)(C)C)C4)CC2)n1 [Example 16, trans-8-Chloro-1-[4-(4-methyl-thiazol-2-yl)-cyclohexyl]-4H,6H-2,3,5,10b-tetraaza-benzo[e]azulene-5-carboxylic acid tert-butyl ester]
- Ki: 0.302 nM

Structure (SMILES): Cc1csc([C@H]2CC[C@H](c3nnc4n3-c3ccc(Cl)cc3CNC4)CC2)n1 [Example 17, trans-8-Chloro-1-[4-(4-methyl-thiazol-2-yl)-cyclohexyl]-5,6-dihydro-4H-2,3,5,10b-tetraaza-benzo[e]azulene]
- Ki: 7.59 nM

Structure (SMILES): Cc1csc([C@H]2CC[C@H](c3nnc4n3-c3ccc(Cl)cc3CN(C)C4)CC2)n1 [Example 18, trans-8-Chloro-5-methyl-1-[4-(4-methyl-thiazol-2-yl)-cyclohexyl]-5,6-dihydro-4H-2,3,5,10b-tetraaza-benzo[e]azulene]
- Ki: 1.7 nM

Structure (SMILES): Cc1nc([C@H]2CC[C@H](c3nnc4n3-c3ccc(Cl)cc3CN(C(=O)OC(C)(C)C)C4)CC2)cs1 [Example 19, trans-8-Chloro-1-[4-(2-methyl-thiazol-4-yl)-cyclohexyl]-4H,6H-2,3,5,10b-tetraaza-benzo[e]azulene-5-carboxylic acid tert-butyl ester]
- Ki: 0.2 nM

Structure (SMILES): Cc1nc([C@H]2CC[C@H](c3nnc4n3-c3ccc(Cl)cc3CNC4)CC2)cs1 [Example 20, trans-8-Chloro-1-[4-(2-methyl-thiazol-4-yl)-cyclohexyl]-5,6-dihydro-4H-2,3,5,10b-tetraaza-benzo[e]azulene]
- Ki: 12.3 nM

Structure (SMILES): Cc1nc([C@H]2CC[C@H](c3nnc4n3-c3ccc(Cl)cc3CN(C)C4)CC2)cs1 [Example 21, trans-8-Chloro-5-methyl-1-[4-(2-methyl-thiazol-4-yl)-cyclohexyl]-5,6-dihydro-4H-2,3,5,10b-tetraaza-benzo[e]azulene]
- Ki: 1.7 nM

Structure (SMILES): Cc1cc([C@H]2CC[C@H](c3nnc4n3-c3ccc(Cl)cc3CN(C(=O)OC(C)(C)C)C4)CC2)no1 [Example 22, trans-8-Chloro-1-[4-(5-methyl-isoxazol-3-yl)-cyclohexyl]-4H,6H-2,3,5,10b-tetraaza-benzo[e]azulene-5-carboxylic acid tert-butyl ester]
- Ki: 0.302 nM

Structure (SMILES): Cc1cc([C@H]2CC[C@H](c3nnc4n3-c3ccc(Cl)cc3CNC4)CC2)no1 [Example 23, trans-8-Chloro-1-[4-(5-methyl-isoxazol-3-yl)-cyclohexyl]-5,6-dihydro-4H-2,3,5,10b-tetraaza-benzo[e]azulene hydrochloride]
- Ki: 6.46 nM

Structure (SMILES): Cc1cc([C@H]2CC[C@H](c3nnc4n3-c3ccc(Cl)cc3CN(C)C4)CC2)no1 [Example 24, trans-8-Chloro-1-[4-(5-methyl-isoxazol-3-yl)-cyclohexyl]-5-methyl-5,6-dihydro-4H-2,3,5,10b-tetraaza-benzo[e]azulene]
- Ki: 1.2 nM

Structure (SMILES): CCN1Cc2cc(Cl)ccc2-n2c(nnc2[C@H]2CC[C@H](c3cc(C)on3)CC2)C1 [Example 25, trans-8-Chloro-5-ethyl-1-[4-(5-methyl-isoxazol-3-yl)-cyclohexyl]-5,6-dihydro-4H-2,3,5,10b-tetraaza-benzo[e]azulene]
- Ki: 1.74 nM

Structure (SMILES): Cc1cc([C@H]2CC[C@H](c3nnc4n3-c3ccc(Cl)cc3CN(C(C)C)C4)CC2)no1 [Example 26, trans-8-Chloro-5-isoproyl-1-[4-(5-methyl-isoxazol-3-yl)-cyclohexyl]-5,6-dihydro-4H-2,3,5,10b-tetraaza-benzo[e]azulene]
- pKi (hV1a): 9.45

Structure (SMILES): Cc1cc([C@H]2CC[C@H](c3nnc4n3-c3ccc(Cl)cc3CN(CC(F)F)C4)CC2)no1 [Example 28, trans-8-Chloro-5-(2,2-difluoro-ethyl)-1-[4-(5-methyl-isoxazol-3-yl)-cyclohexyl]-5,6-dihydro-4H-2,3,5,10b-tetraaza-benzo[e]azulene]
- Ki: 0.603 nM
